From patent publication US8889878B2, “Haloalky-substituted amides as insecticides and acaricides” (Bayer CropScience AG, priority 2009, dated 2014)

Experiment: logP by HPLC on reverse-phase column (EEC Directive 79/831 Annex V.A8)
Format: physicochemical
Conditions: for chromatographic logP: reverse-phase C18 HPLC column
Procedure: The logP values reported in the above Tables and Preparation Examples were determined according to EEC Directive 79/831 Annex V.A8 by HPLC (High Performance Liquid Chromatography) on a reverse-phase column (C18). Temperature 43° C.

[1] = HPLC-MS, HPLC on reverse-phase column
[2] = HPLC, C18 reverse phase, 43° C., acidic range pH 2.7, calibration with alkan-2-ones
[3] = pH 2.7, HPLC, C18 reverse phase, 43° C., acidic range pH 2.7, calibration with alkan-2-ones

CCOC1(NC(=O)c2ccc(/C=C/C(=O)NC(c3cccc(C(F)(F)F)c3)C(F)(F)F)cc2C)CC1 (stereo not drawn) [Ia-85]
logP (HPLC-MS): HPLC-MS: logP = 3.27 mass

Cc1cc(/C=C/C(=O)NC(c2cccc(C(F)(F)F)c2)C(F)(F)F)ccc1C(=O)N(C)C1CC1 (stereo not drawn) [Ia-116]
logP (HPLC-MS): HPLC-MS: logP = 3.37 mass

O=C(/C=C/c1ccc(S(=O)(=O)NC2CC2)cc1)NC(c1cccc(C(F)(F)F)c1)C(F)(F)F (stereo not drawn) [Ia-117]
logP (HPLC-MS): HPLC-MS: logP = 3.33; mass

O=C(/C=C/c1ccc(C(=O)NC2CC2)c(Cl)c1)NC(c1cccc(C(F)(F)F)c1)C(F)(F)F (stereo not drawn) [Ia-118]
logP (HPLC-MS): HPLC-MS: logP = 3.24; mass

O=C(/C=C/c1ccc(C(=O)Nc2cccc(Cl)n2)c(C(F)(F)F)c1)NC(c1cccc(C(F)(F)F)c1)C(F)(F)F (stereo not drawn) [Ia-120]
logP (HPLC-MS): HPLC-MS: logP = 4.33; mass

O=C(/C=C/c1ccc(C(=O)NCc2ncccn2)c(Br)c1)NC(c1cccc(C(F)(F)F)c1)C(F)(F)F (stereo not drawn) [Ia-133]
logP (HPLC-MS): HPLC-MS: logP = 2.93; mass

CC(NC(=O)c1ccc(/C=C/C(=O)NC(c2cccc(C(F)(F)F)c2)C(F)(F)F)cc1C(F)(F)F)C1(Cl)CC1 (stereo not drawn) [Ia-171]
logP (HPLC-MS): HPLC-MS: logP = 4.18; mass

CC(CF)NC(=O)c1ccc(/C=C/C(=O)NC(c2cccc(C(F)(F)F)c2)C(F)(F)F)cc1Br (stereo not drawn) [Ia-173]
logP (HPLC-MS): HPLC-MS: logP = 3.35; mass

O=C(/C=C/c1ccc(C(=O)NCc2nccs2)c(Br)c1)NC(c1cccc(C(F)(F)F)c1)C(F)(F)F (stereo not drawn) [Ia-177]
logP (HPLC-MS): HPLC-MS: logP = 3.14; mass

CC(C)C(C#N)NC(=O)c1ccc(/C=C/C(=O)NC(c2cccc(C(F)(F)F)c2)C(F)(F)F)cc1Cl (stereo not drawn) [Ia-182]
logP (HPLC-MS): HPLC-MS: logP = 3.68; mass

O=C(/C=C/c1ccc(C(=O)Nc2nccs2)c(Cl)c1)NC(c1cccc(C(F)(F)F)c1)C(F)(F)F (stereo not drawn) [Ia-185]
logP (HPLC-MS): HPLC-MS: logP = 3.51; mass

Cn1ccc(CNC(=O)c2ccc(/C=C/C(=O)NC(c3cccc(C(F)(F)F)c3)C(F)(F)F)cc2Cl)n1 (stereo not drawn) [Ia-186]
logP (HPLC-MS): HPLC-MS: logP = 2.95; mass

O=C(/C=C/c1ccc(C(=O)Nc2cccnn2)c(Cl)c1)NC(c1cccc(C(F)(F)F)c1)C(F)(F)F (stereo not drawn) [Ia-217]
logP (HPLC-MS): HPLC-MS: logP = 3.29; mass

COC(=O)c1ccc(NC(=O)c2ccc(/C=C/C(=O)NC(c3cccc(C(F)(F)F)c3)C(F)(F)F)cc2Cl)nc1 (stereo not drawn) [Ia-218]
logP (HPLC-MS): HPLC-MS: logP = 3.92; mass

O=C(/C=C/c1ccc(C(=O)NC2C[S+]([O-])C2)c(C(F)(F)F)c1)NC(c1cccc(C(F)(F)F)c1)C(F)(F)F (stereo not drawn) [Ia-227]
logP (HPLC-MS): HPLC-MS: logP = 2.71; mass

O=C(/C=C/c1ccc(C(=O)Nc2ccc(Cl)nn2)c(Cl)c1)NC(c1cccc(C(F)(F)F)c1)C(F)(F)F (stereo not drawn) [Ia-228]
logP (HPLC-MS): HPLC-MS: logP = 3.7; mass

O=C(/C=C/c1ccc(C(=O)NC2CC2)c(C(F)(F)F)c1)NC(c1cccc(F)c1)C(F)(F)F (stereo not drawn) [Ia-230]
logP (HPLC-MS): HPLC-MS: logP = 2.95; mass

O=C(/C=C/c1ccc(C(=O)NC2CC2)c(C(F)(F)F)c1)NC(c1cccc(Cl)c1)C(F)(F)F (stereo not drawn) [Ia-231]
logP (HPLC-MS): HPLC-MS: logP = 3.22; mass

Cc1cccc(C(NC(=O)/C=C/c2ccc(C(=O)NC3CC3)c(C(F)(F)F)c2)C(F)(F)F)c1 (stereo not drawn) [Ia-232]
logP (HPLC-MS): HPLC-MS: logP = 3.17; mass

O=C(/C=C/c1ccc(C(=O)NC2CC2)cc1Cl)NC(c1cccc(C(F)(F)F)c1)C(F)(F)F (stereo not drawn) [Ia-233]
logP (HPLC-MS): HPLC-MS: logP = 3.46; mass

O=C(/C=C/c1ccc(C(=O)NC2CC2)cc1Cl)NC(c1cccc(Cl)c1)C(F)(F)F (stereo not drawn) [Ia-234]
logP (HPLC-MS): HPLC-MS: logP = 3.3; mass

O=C(/C=C/c1ccc(C(=O)NCc2ccc(F)cn2)c(Cl)c1)NC(c1cccc(C(F)(F)F)c1)C(F)(F)F (stereo not drawn) [Ia-236]
logP (HPLC-MS): HPLC-MS: logP = 3.15; mass

CCC(=O)NCc1ccc(/C=C/C(=O)NC(c2cccc(C(F)(F)F)c2)C(F)(F)F)cc1C(F)(F)F (stereo not drawn) [Ia-238]
logP (HPLC-MS): HPLC-MS: logP = 3.51; mass

O=C(/C=C/c1ccc(CNC(=O)C2CC2)c(C(F)(F)F)c1)NC(c1cccc(C(F)(F)F)c1)C(F)(F)F (stereo not drawn) [Ia-240]
logP (HPLC-MS): HPLC-MS: logP = 3.76; mass

CCC(=O)NCc1ccc(/C=C/C(=O)NC(c2cccc(C(F)(F)F)c2)C(F)(F)F)cc1 (stereo not drawn) [Ia-241]
logP (HPLC-MS): HPLC-MS: logP = 2.8; mass

CS(=O)(=O)c1cccc(C(NC(=O)/C=C/c2ccc(C(=O)NC3CC3)c(C(F)(F)F)c2)C(F)(F)F)c1 (stereo not drawn) [Ia-243]
logP (HPLC-MS): HPLC MS: logP = 2.31; mass

CS(=O)(=O)c1cccc(C(NC(=O)/C=C/c2ccc(C(=O)Nc3ccccn3)c(C(F)(F)F)c2)C(F)(F)F)c1 (stereo not drawn) [Ia-244]
logP (HPLC-MS): HPLC-MS: logP = 2.62; mass

CC(=O)NCc1ccc(/C=C/C(=O)NC(c2cccc([S+](C)[O-])c2)C(F)(F)F)cc1C(F)(F)F (stereo not drawn) [Ia-245]
logP (HPLC-MS): HPLC-MS: logP = 1.98; mass

O=C(/C=C/c1ccc(C(=O)Nc2ccccn2)c(C(F)(F)F)c1)NC(c1cccc(Cl)c1)C(F)(F)F (stereo not drawn) [Ia-246]
logP (HPLC-MS): HPLC-MS: logP = 3.37; mass

CC(=O)NCc1ccc(/C=C/C(=O)NC(c2cccc(C(F)(F)F)c2)C(F)(F)F)cc1C (stereo not drawn) [Ia-249]
logP (HPLC-MS): HPLC-MS: logP = 2.9; mass

Cc1cccnc1NC(=O)c1ccc(/C=C/C(=O)NC(c2cccc(C(F)(F)F)c2)C(F)(F)F)cc1C(F)(F)F (stereo not drawn) [Ia-255]
logP (HPLC-MS): HPLC-MS: logP = 3.19; mass

CC1CC1NC(=O)c1ccc(C=CC(=O)NC(c2cccc(C(F)(F)F)c2)C(F)(F)F)cc1C(F)(F)F (stereo not drawn) [Ia-261]
logP [1]: HPLC-MS: logP = 3.46; mass

O=C(/C=C/c1ccc(C(=O)NCC(=O)NCC(F)(F)F)c(C(F)(F)F)c1)NC(c1cccc(C(F)(F)F)c1)C(F)(F)F (stereo not drawn) [Ia-262]
logP [1]: HPLC-MS: logP = 3.11; mass

O=C(/C=C/c1ccc(CNc2ccccn2)c(C(F)(F)F)c1)NC(c1cccc(C(F)(F)F)c1)C(F)(F)F (stereo not drawn) [Ia-263]
logP [1]: HPLC-MS: logP = 2.2; mass

O=C(/C=C/c1ccc(CNc2cc(Cl)ccn2)cc1)NC(c1cccc(C(F)(F)F)c1)C(F)(F)F (stereo not drawn) [Ia-265]
logP [1]: HPLC-MS: logP = 3.15; mass

O=C(/C=C/c1ccc(CNC(=O)c2ccsc2)c(C(F)(F)F)c1)NC(c1cccc(C(F)(F)F)c1)C(F)(F)F (stereo not drawn) [Ia-268]
logP [1]: HPLC-MS: logP = 3.92; mass

O=C(/C=C/c1ccc(CNC(=O)C2COC(=O)C2)c(C(F)(F)F)c1)NC(c1cccc(C(F)(F)F)c1)C(F)(F)F (stereo not drawn) [Ia-269]
logP [1]: HPLC-MS: logP = 3.34; mass

O=C(/C=C/c1ccc(C(=O)NC2CC2)c(C(F)(F)F)c1)NC(c1cc(Cl)c(Cl)c(Cl)c1)C(F)(F)F (stereo not drawn) [Ia-283]
logP [1]: HPLC-MS: logP = 4.1; mass

O=C(/C=C/c1ccc(C(=O)NCc2ccccc2)c(C(F)(F)F)c1)NC(c1ccncc1)C(F)(F)F (stereo not drawn) [Ib-1]
logP [2]: HPLC-MS: logP = 3.02 mass (m/z):

N#Cc1ccc2cc(C(=O)NC(c3cccc(C(F)(F)F)c3)C(F)(F)F)oc2c1 (stereo not drawn) [Ic-3]
logP [2]: HPLC-MS: logP = 3.72; mass

N#Cc1ccc2oc(C(=O)NC(c3ccc(Cl)c(Cl)c3)C(F)(F)F)cc2c1 (stereo not drawn) [Ic-5]
logP [2]: HPLC-MS: logP = 3.95; mass

NC(=O)c1ccc2oc(C(=O)NC(c3cccc(C(F)(F)F)c3)C(F)(F)F)cc2c1 (stereo not drawn) [Ic-6]
logP [2]: HPLC-MS: logP = 2.69; mass

N#Cc1ccc2oc(C(=O)NC(c3ccc(Cl)cc3Cl)C(F)(F)F)cc2c1 (stereo not drawn) [Ic-7]
logP [2]: HPLC-MS: logP = 4.04; mass

N#Cc1ccc2cc(C(=O)NC(c3cccc(C(F)(F)F)c3)C(F)(F)F)[nH]c2c1 (stereo not drawn) [Ic-8]
logP [2]: HPLC-MS: logP = 3.51; mass

CS(=O)(=O)c1ccc2[nH]c(C(=O)NC(c3cccc(C(F)(F)F)c3)C(F)(F)F)cc2c1 (stereo not drawn) [Ic-9]
logP [2]: HPLC-MS: logP = 2.92; mass

C=CCC(=O)NCc1ccc2oc(C(=O)NC(c3cccc(C(F)(F)F)c3)C(F)(F)F)cc2c1 (stereo not drawn) [Ic-13]
logP [2]: HPLC-MS: logP = 3.24; mass

CCC(=O)NCc1ccc2oc(C(=O)NC(c3cccc(C(F)(F)F)c3)C(F)(F)F)cc2c1 (stereo not drawn) [Ic-14]
logP [2]: HPLC-MS: logP = 3.09; mass

NC(=O)c1cc2cc(C(=O)NC(c3cccc(C(F)(F)F)c3)C(F)(F)F)oc2cc1F (stereo not drawn) [Ic-16]
logP [2]: HPLC-MS: logP = 2.88; mass

O=C(NC(c1cccc(C(F)(F)F)c1)C(F)(F)F)c1cc2cc(S(=O)(=O)C(F)(F)F)ccc2[nH]1 (stereo not drawn) [Ic-17]
logP [2]: HPLC-MS: logP = 4.19; mass

Cn1c(C(=O)NC(c2cccc(C(F)(F)F)c2)C(F)(F)F)cc2cc(Cl)c(C(=O)NC3CC3)cc21 (stereo not drawn) [Ic-48]
logP [2]: HPLC-MS: logP = 3.33; mass

O=C(/C=C/c1ccc(C(=O)NC2CC2)c(C(F)(F)F)c1)NC(c1cccc(F)c1)C(F)F (stereo not drawn) [Id-2]
logP [2]: HPLC-MS: logP = 2.68; mass

O=C(/C=C/c1ccc(C(=O)NC2CC2)c(C(F)(F)F)c1)NC(c1cccc(Cl)c1)C(F)F (stereo not drawn) [Id-3]
logP [2]: HPLC-MS: logP = 2.92; mass

O=C(NCc1ccccc1)c1ccc(Br)cc1C(F)(F)F [N-Benzyl-4-bromo-2-(trifluoromethyl)benzamide]
chromatographic logP [3]: 2.89

O=C(NC1CC1)c1cnc(I)cc1C(F)(F)F [N-Cyclopropyl-6-iodo-4-(trifluoromethyl)nicotinamide]
chromatographic logP [3]: 1.92

CCC(=O)NC(C)c1ccc(Br)cc1F (stereo not drawn) [N-[1-(4-Bromo-2-fluorophenyl)ethyl]propanamide]
chromatographic logP [3]: 2.19

FC(F)(F)c1cc(Br)ccc1CNc1ccccn1 [N-[4-Bromo-2-(trifluoromethyl)benzyl]pyridin-2-amine]
chromatographic logP [3]: 1.57

C=CC(=O)NC(c1cccc(C(F)(F)F)c1)C(F)(F)F (stereo not drawn) [N-{2,2,2-Trifluoro-1-[3-(trifluoromethyl)phenyl]ethyl}acrylamide]
chromatographic logP [3]: 2.75

CC(C)(C)OC(=O)c1ccc(C=O)c(O)c1 [tert-Butyl 4-formyl-3-hydroxybenzoate]
chromatographic logP [3]: 3.11

CC(C)(C)OC(=O)NCc1ccc(Br)cc1C(F)(F)F [tert-Butyl [4-bromo-2-(trifluoromethyl)benzyl]carbamate]
chromatographic logP [3]: 4.13

CC(C)(C)OC(=O)NCc1ccc(/C=C/C(=O)NC(c2cccc(C(F)(F)F)c2)C(F)(F)F)cc1C(F)(F)F (stereo not drawn) [tert-Butyl {4-[1E)-3-oxo-3-({2,2,2-trifluoro-1-[3-(trifluoromethyl)phenyl]ethyl}amino)prop-1-en-1-yl]-2-(trifluoromethyl)benzyl}carbamate]
chromatographic logP [2]: 4.4
